In patent publication US9623021B2, “Nuclear receptor binding agents” (GTX, Inc., priority 2007, dated 2017):
Entries after “also recorded” stand apart in the source; their conditions may differ.

Experiments:
[1] = target: ERα ligand binding domain (Homo sapiens (Human), UniProt P03372); assay: Competitive [3H]-estradiol radioligand binding, ERα (Example 21)
[2] = target: ER-α (Rattus norvegicus (Rat), UniProt P06211); assay: Transient transfection and reporter gene assay, ER-α, HEK-293 cells (Example 22A); assay type: cell-based; conditions: ERE-LUC
Method: Human estrogen receptors (ER-α and ER-β) were cloned from prostate cDNA into a pCR3.1 plasmid vector backbone. PGC-1 was cloned into mammalian two hybrid vector pACT. ER-β H475 was mutated to alanine using site-directed mutagenesis. Sequencing was performed to determine the absence of any non specific mutations. SHP promoter (−572 to +10) (26) was cloned into pGL3 basic LUC reporter vector and human FXR was cloned into pCR3.1. HEK-293 cells were plated at 100,000 cells per well of a 24 well plate in […] (DMEM)+5% charcoal-stripped fetal bovine serum (csFBS). The cells were transfected using Lipofectamine (Invitrogen, Carlsbad, Calif.) with 0.25 μg ERE-LUC, 0.02 μg CMV-LUC (renilla luciferase) and 12.5 ng of rat ER-α or 25 ng rat ER-β. […] Luciferase assays were performed 48 hrs after transfection.
To determine if the selectivity in ER binding also translated into ER-β-selective activity, transient transactivation assays were performed in HEK-293 cells transfected with plasmids encoding ER-α or ER-β and ERE-LUC. The cells were treated with varying concentrations of the ligands and their EC50 values were determined.

[3] = test system: Ishikawa endometrial cells; assay: Ishikawa growth assay (alkaline phosphatase); assay type: cell-based
Method: Ishikawa cells were plated at 15,000 cells/well in 24 well plates in DME:F12 (1:1)+5% csFBS w/o phenol red. The cells were maintained in this medium at 37° C. for 3 days. Medium was changed immediately prior to drug treatment for an additional 72 hrs. After 72 hrs, the cells were fixed with formalin and the amount of alkaline phosphatase (ALP) measured by para-nitrophenyl phosphate method.
This effect is one potential concern in the development of ER-α SERMs.

[4] = test system: ovariectomized mice; assay: Ovariectomy-induced obesity model (postmenopausal obesity); assay type: in vivo, female C57BL6 mice; conditions: OVX mice
Method: For the ovariectomy-induced obesity model, 6 week old female C57BL6 mice were sham operated or ovariectomized and the study was carried out for 9 weeks as indicated above.
Since it was shown that β-SERMs affected body composition in an animal model of high fat diet-induced obesity, they might also be effective in an animal model of postmenopausal obesity.

[5] = test system: PPAR-α; assay: PPAR-α transactivation (PPRE-LUC) in HEK-293 cells co-transfected with ER-β; assay type: cell-based; conditions: FIG. 12A right panel
Method: FIG. 12 depict the effect of ER-β ligand on PPAR-γ function through ligand binding domain (LBD). (A). HEK-293 cells were transfected with 0.25 μg PPRE-LUC, 5 ng CMV-renilla LUC and the indicated receptors (PPAR-γ and ER-β for the left panel and PPAR-α and ER-β for the right panel). The cells were treated 24 hrs after transfection with the indicated ligands and harvested 48 hrs after transfection and firefly luciferase activity was measured and normalized to renilla luciferase. (B). H475 in ER-β LBD is important for its function. H475 in ER-β LBD was mutated to alanine (A) using a site directed mutagenesis kit. Transactivation assay was performed as described in panel A in HEK-293 cells with a titration of ER-β ligands in wild type or ER-β H475A. (C). […] The cells were treated 24 hrs after transfection with the indicated ligands and harvested 48 hrs after transfection and firefly luciferase activity was measured and normalized to renilla luciferase. […] The cells were treated 24 hrs after transfection with the indicated ligands and harvested 48 hrs after transfection and firefly luciferase activity was measured and normalized to renilla luciferase. […] The cells were treated 24 hrs after transfection with the indicated ligands and harvested 48 hrs after transfection and firefly luciferase activity was measured and normalized to renilla luciferase. […]

[6] = test system: LNCaP prostate cancer cells; assay: LNCaP prostate cancer cell proliferation (3H thymidine incorporation); assay type: cell-based; conditions: treated for 6 days, FIG. 21
Method: The effects of treatment of an ER-β selective NRBA of this invention on cancer cell proliferation was examined using LNCaP prostate cancer cells and C-26 colon cancer cells. LNCaP or C-26 cells were plated in growth medium in 24 well and 6 well plates, respectively. LNCaP cells were treated for 6 days and C-26 cells were treated for 3 days at the indicated concentration. ^3H thymidine incorporation was measured at the end of treatment as an indicator of cell proliferation.

[7] = test system: high fat diet fed C57BL6 mice; assay: High fat diet induced obesity model, prevention studies (studies 1 and 2)
Method: Study A: C57BL6 male mice of 4 weeks of age were divided into different groups and were fed with a normal or high fat diet (Harlan, Ind.).
For the treatment study (study 3), the animals were maintained on the irrespective diets for 6 weeks and then treated daily as indicated for an additional 18 weeks. Biweekly body weights and food consumption were measured. The animals were sacrificed at the end of each study and blood and tissues were collected for RNA isolation, histology and protein estimation.
Cholesterol and leptin concentrations were measured in serum using ELISA-based methods.
Histology was performed on cryosections and stained with oil 0 red.
Oral glucose tolerance tests (OGTT) were performed on 16-h fasted mice. Mice were given 150 mg glucose by oral gavage through a gastric tube.
Six week old C57BL/6 mice were randomized, based on body weight, into three study groups as shown in the Study Parameters Table below.
The mice were treated for 12 weeks. Twice weekly, the body weight and feed consumption were measured.
A glucose tolerance test was also performed at the completion of the study by administering 150 mg glucose orally to the mice and measuring blood glucose levels at 0, 15, 30 and 60 minutes post glucose administration.
At sacrifice, the mice organ weights were measured and collected for histology, gene expression and protein expressions. Blood was collected for serum marker determination (cholesterol, glucose, leptin).
Dual energy X-ray absorptiometry (DEXA) was performed to measure the body composition in Study 1.
An MRI scan was performed at the beginning of the study, after 6 weeks and at the completion of the study.

[8] = high fat diet, 30 mg/kg/day s.c., 12 weeks, FIG. 7
[9] = high fat diet, 30 mg/kg/day s.c., Study 2

Chain of ERα ligand binding domain (P03372 whole entry, looked up, species assumed, the tested form may be a part): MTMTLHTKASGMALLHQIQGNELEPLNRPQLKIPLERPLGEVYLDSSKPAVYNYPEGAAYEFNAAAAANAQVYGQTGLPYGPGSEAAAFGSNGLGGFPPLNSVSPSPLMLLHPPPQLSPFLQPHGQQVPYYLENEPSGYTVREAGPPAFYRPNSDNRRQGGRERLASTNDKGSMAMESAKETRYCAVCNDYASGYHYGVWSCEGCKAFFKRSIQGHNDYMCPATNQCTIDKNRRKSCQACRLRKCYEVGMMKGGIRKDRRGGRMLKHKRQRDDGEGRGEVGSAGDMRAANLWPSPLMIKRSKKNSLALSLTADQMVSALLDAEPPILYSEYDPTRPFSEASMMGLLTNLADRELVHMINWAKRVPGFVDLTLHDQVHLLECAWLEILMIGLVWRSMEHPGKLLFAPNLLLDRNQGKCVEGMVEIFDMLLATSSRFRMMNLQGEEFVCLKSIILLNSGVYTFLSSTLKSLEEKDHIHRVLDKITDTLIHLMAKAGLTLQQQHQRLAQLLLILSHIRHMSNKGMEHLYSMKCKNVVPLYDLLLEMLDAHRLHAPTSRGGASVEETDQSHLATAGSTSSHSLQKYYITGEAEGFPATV

In the case of O=c1c2c(O)cc(O)cc2c(Br)cn1-c1ccc(O)cc1 [Compound 12u, 4-bromo-6,8-dihydroxy-2-(4-hydroxyphenyl)isoquinolin-1(2H)-one], the Ki [1] is reported as 32 nM, the “function at ER-α in transactivation” value [2] is reported as “agonists” and the Ishikawa cell proliferation ([3]; FIG. 3C) is reported as “weakly induce”. The “concentration at which proliferation of Ishikawa cells was induced” value ([3]; highest concentration tested, ALP assay, 72 hrs) was 1 µM, the body weight gain ([4]; 9 weeks, FIG. 11A) was “did not inhibit body weight gain” and the feed consumption ([4]; FIG. 11B) was “increased the feed consumption”. For the same compound, the “fat mass (MRI)” value ([4]; FIG. 11C left panel) was “completely prevented the increase in fat mass”, the “lean mass (MRI)” value ([4]; FIG. 11C right panel) was “significantly increased lean mass” and the WAT weight ([4]; FIG. 11D) was “completely inhibited the WAT accrued due to OVX”. The uterine weight ([4]; FIG. 11D) was “without affecting uterine weight”, the “WY14643 induced PPAR-α transactivation” value [5] was “did not affect” and the “growth of LNCaP prostate cancer cells” value [6] was “significantly inhibited the growth”. The “prevention of body weight increase caused by the high fat diet” value ([7]; 30 mg/kg/day s.c., 12 weeks, Study 2) was “more than 50%”, the gastrocnemius muscle weight [7, 8] was “increased gastrocnemius muscle weight” and the “white adipose tissue (WAT) weight” value [7, 8] was “prevented the increase in the WAT weight; also recorded: comparably decreased WAT weight”. The “fat mass (MRI)” value [7, 9] was “reduce fat mass”, the “lean mass (MRI)” value [7, 9] was “increase muscle mass; also recorded: increased the lean mass” and the “prevention of the increase in body fat (MRI)” value [7, 9] was “more than 50%”. The testes weights ([7]; high fat diet, 12 weeks, FIG. 9A) was “not altered”, the serum testosterone levels ([7]; high fat diet, 12 weeks, FIG. 9B) was “did not affect; also recorded: not altered” and the “serum follicle stimulating hormone (FSH)” value ([7]; high fat diet, 12 weeks, FIG. 9C) was “not altered”.
